This is an account of results in the METLIN SMRT retention time set (Domingo-Almenara et al. 2019).

The data set is described as follows: gradient 5% acetonitrile 3 min, to 50% in 2 min, to 85% in 15 min, held 3 min, 100 µL/min. The following applies: column: Zorbax Extend-C18 2.1 x 50 mm; eluents: water / acetonitrile, 0.1% formic acid. The method in brief:
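Retention times come from adduct peaks that were picked computationally and then checked by hand. The standards, pure and pooled in mixtures of ~100 molecules, were run on a Zorbax Extend-C18 column (2.1 × 50 mm, 1.8 μm) at 100 μL/min with water and acetonitrile, each with 0.1% formic acid. Detection was by quadrupole time-of-flight mass spectrometry in positive and negative ionization mode, with a dead volume of 40 μL and a dwell volume of 900 μL.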
As to `O=C1CCc2cc(NS(=O)(=O)/C=C/c3ccccc3)ccc2N1`, the RP-LC retention time is 681 s.
Take `O=C(NCc1ccco1)N1CCCn2nc(-c3cccs3)cc2C1`: the RP-LC retention time is 752 s.
For the compound `Cc1ccc(CCNC(=O)c2ccc3c(c2)N(C)C(=O)C2CCCCN32)cc1` (centres undefined), the RP-LC retention time was determined as 947 s.
On to `CCOC(=O)c1ccccc1NC(=O)NCCn1c(C(F)(F)F)nc2cccnc21`, for which the RP-LC retention time turned out to be 917 s.
The compound `C#CCSc1n[nH]c(-c2ccco2)n1` returned an RP-LC retention time of 719 s.
Consider `CCCCc1nnc(NC(=O)C2CC(=O)N(CCc3c[nH]c4ccc(C)cc34)C2)s1` (centres undefined), for which the RP-LC retention time was determined as 802 s.
The compound `CCN1C(=O)C2CC3(CCN(C(=O)c4ccoc4)CC3)CN2C1=O` (centres undefined) displayed an RP-LC retention time of 628 s.
In turn, `Cc1sc(-c2nnc(C(C)C)o2)cc1NC(=O)C1CCC1` returned an RP-LC retention time of 892 s.
`O=C(CN1C(=O)CCCc2ccccc21)NCCc1ccccc1` showed an RP-LC retention time of 783 s.
`Cc1ccccc1CN1C(=O)CN(S(C)(=O)=O)CC1(C)C(=O)NCc1ccccc1` (centres undefined) yielded an RP-LC retention time of 838 s.
To `O=C(Cn1c(-c2cccs2)cc2cc(Cl)ccc21)N1CCN(c2ccccn2)CC1` belongs 809 s; to `CCCSc1ncnc2[nH]ncc12`, 837 s; to `CS(=O)(=O)c1ccc(-c2cnc(N)c(C(=O)Nc3ccccc3)n2)cc1`, 937 s.
To `COCCCN1CN=C(Nc2nc(C)c3cc(C)ccc3n2)NC1` belongs 555 s; to `Fc1ccccc1-c1nc2ccn(Cc3ccc(-c4ccc(C(F)(F)F)cc4C(F)(F)F)nn3)cc-2n1`, 849 s; to `COc1ccccc1-c1nc(Cn2nnc(-c3nc(-c4ccc(SC)cc4)no3)c2C)c(C)o1`, 1180 s.
`COc1ccc(-c2nc3cnccn3c2Nc2cc(C)cc(C)c2)cc1` gave an RP-LC retention time of 952 s.
To `Cc1ccc(NS(=O)(=O)c2ccc([N+](=O)[O-])cc2)c(-c2nc3ccccc3[nH]c2=O)c1` belongs 858 s.
For the compound `O=c1c2cnc3ncnn3c2ccn1C1CC1`, the RP-LC retention time was determined as 583 s.
To `O=C(NCc1cccc(F)c1)N1CCC(n2c(-c3ccco3)nc3cccnc32)C1` (centres undefined) belongs 774 s; to `CSc1ncc(Cl)c(C(=O)NCc2ccco2)n1`, 753 s; to `O=C(NCc1ccccc1)N1[C@H]2CC[C@@H]1c1cnc(-c3ccccc3)nc1C2`, 865 s.
In turn, `COc1cccc(-c2noc(Cc3nnc(-c4cc(C)cc(C)c4)o3)n2)c1OC` had an RP-LC retention time of 1060 s.
As for `CCOc1cccc(C2CC(c3ccc(OC)c(OC)c3)=NC3(CCN(C(C)C)CC3)N2)c1O` (centres undefined), the RP-LC retention time is 604 s.
The compound `COc1ccc(-c2nnc(-c3cccc(S(=O)(=O)N4CCCCCC4)c3)o2)cc1OC` yielded an RP-LC retention time of 1020 s.
As to `Cn1cc(S(=O)(=O)N2CCC(C(=O)Nc3ccc(F)cc3)CC2)cc1C(=O)N1CCCC1`, the RP-LC retention time is 750 s.
The compound `CCOc1ccc(-c2csc(NC(=O)CCCOc3ccccc3C)n2)cc1` registered an RP-LC retention time of 1240 s.
Consider `Cc1ccc(C(=O)N2CCN(c3nnc4cccc(C)n34)CC2)cc1`, for which the RP-LC retention time stood at 670 s.
`O=C(c1cn(-c2cc(N3CCSCC3)ncn2)cn1)N1CCC(Cc2ccccc2)CC1`: the RP-LC retention time came out at 1090 s.
To `CN(CC1CCOCC1)C(=O)c1cc(F)cc(F)c1` belongs 725 s; to `Cc1cccc(NC(=O)CSc2nnc(NC(=O)CN(C)S(C)(=O)=O)s2)c1C`, 618 s.
The figure for `Cc1ccc(NS(=O)(=O)c2cc3n(c2)CCN(CC(C)C)C3=O)c(C)c1` is 841 s.
`CC(=O)Oc1ccc(C(=O)NCCc2c[nH]c3ccc(Cl)cc23)cc1` came in with an RP-LC retention time of 853 s.
`O=C(CN1CC=C(c2cnn(-c3ccc(F)cc3)c2)CC1)N1CCN(c2ccc(F)cc2)CC1` displayed an RP-LC retention time of 739 s.
As to `COC(=O)c1cn(CC(=O)Nc2cc(OC)ccc2OC)c2ccccc12`, the RP-LC retention time came out at 946 s.
`O=C(O)c1nnn(-c2cccc(Cl)c2)c1-c1cccnc1`: the RP-LC retention time is 680 s.
`CC(C)Cc1cc(-c2nnc3sc(COc4ccccc4Cl)nn23)n[nH]1` gave an RP-LC retention time of 941 s.
In turn, `CCc1noc(-c2cnc3nc(C)ccc3c2Nc2ccc(OC)cc2)n1` displayed an RP-LC retention time of 764 s.
As to `CC1CCCCN1CCNC(=O)c1c2c(cn(-c3ccc(Cl)cc3)c1=O)C(=O)CC(C)(C)C2` (centres undefined), the RP-LC retention time was 710 s.
Turning to `O=C(Cc1ccccc1)N1CCN(c2cc(-c3cccs3)[nH]n2)CC1`, the RP-LC retention time stood at 765 s.
`COc1ccc(C(CC(=O)NCCC(C)C)N2Cc3ccccc3C2=O)cc1OC` (centres undefined): the RP-LC retention time worked out at 722 s.
To `O=c1ccc(N2CCC(NS(=O)(=O)c3ccccc3Cl)CC2)nn1CC1CC1` belongs 747 s; to `CCc1cc(=O)n(CC(=O)Nc2cccc(C(C)C)c2)c(N2CCOCC2)n1`, 829 s; to `CCOC(=O)c1c(S(=O)(=O)N2CCC(C(=O)Nc3ccc(C)c(C)c3)CC2)c(C)n(C)c1C`, 841 s.
As for `CN1CCCC1c1nc(C2CN(C(=O)c3n[nH]c(=O)c4ccccc34)C2)no1` (centres undefined), the RP-LC retention time came out at 560 s.
In turn, `O=C(C1=CN(c2ccccc2)c2cc(F)ccc2S1(=O)=O)N1CCOCC1` showed an RP-LC retention time of 754 s.
`CC(=O)/C=C1\SC(CC(=O)O)C(=O)N1c1ccccc1` (centres undefined) came in with an RP-LC retention time of 631 s.
`O=C(c1ccco1)N1CCN=C1N1CCN(c2cccc(Cl)c2)CC1` yielded an RP-LC retention time of 696 s.
`Cc1ccc(NC(=O)c2cn(-c3cc(N4CCCC4)ncn3)cn2)c(C)c1` yielded an RP-LC retention time of 961 s.
In the case of `CN(c1nccn2c(=O)n(CC(=O)Nc3ccc4c(c3)OCO4)nc12)C1CCCCC1`, the RP-LC retention time was 716 s.
The compound `CC(C)CN1CCn2cc(S(=O)(=O)NCc3cc(F)cc(F)c3)cc2C1=O` returned an RP-LC retention time of 808 s.
The figure for `COc1cccc([C@@]2(O)CCCC[C@H]2CN(C)C)c1` is 591 s; for `CCCNC(=O)c1sc(Nc2cccc(C)n2)nc1C` it is 697 s; for `CCC(C)NC(=O)COc1nc(C)nc2onc(-c3cccc(F)c3)c12` (centres undefined) it is 932 s.
`Cc1cc(-c2cc(S(=O)(=O)NCCc3ccc(Cl)cc3)c(C)s2)n[nH]1` had an RP-LC retention time of 915 s.
With `CCN1C(=O)COc2cc(-c3noc(C(=O)NC4CC4)n3)ccc21`, the RP-LC retention time amounted to 773 s.
For the compound `CCOc1ccc(N(C)S(=O)(=O)c2ccsc2C(=O)NC2CCCC2)cc1`, the RP-LC retention time came to 1030 s.
`O=C(CN1CCC2(CC1)N=C(c1ccc(F)cc1)C(=O)N2)Nc1cc(F)ccc1F` yielded an RP-LC retention time of 692 s.
`Cc1cc(NC(=O)c2ccccc2C(F)(F)F)n(-c2nc(-c3cccs3)cs2)n1` came in with an RP-LC retention time of 1250 s.
In turn, `O=C(CCCc1nnc(C(=O)Nc2ccccc2)s1)NCCc1c[nH]c2ccc(Cl)cc12` yielded an RP-LC retention time of 889 s.
In the case of `CS(=O)(=O)Nc1ccc(-c2noc(-c3cnccn3)n2)cc1`, the RP-LC retention time is 686 s.
As to `Cc1ccc(-c2noc(C3CC(=O)N(c4ccccc4Cl)C3)n2)cc1` (centres undefined), the RP-LC retention time worked out at 1010 s.
To `CCc1cccc(C)c1NC(=O)Cn1cnc2nc(N3CCCC(C(=O)NC)C3)sc2c1=O` (centres undefined) belongs 672 s; to `Cc1sc(C)c(S(=O)(=O)N2CCN(c3ccccn3)CC2)c1-c1cc(C(F)(F)F)on1`, 887 s.
Turning to `CCCc1cc(N2CCN(C(=O)COc3ccccc3)CC2)nc2nncn12`, the RP-LC retention time came out at 640 s.
Compound `O=C(CC1CCCC1)N1CCC(c2noc(-c3cnccn3)n2)C1` (centres undefined) displayed an RP-LC retention time of 726 s.
The figure for `Cc1sc(-c2nc(C(C)C)cs2)cc1S(=O)(=O)N1CCN(c2ccccn2)CC1` is 908 s.
In turn, `CC(C)c1noc(-c2cccnc2N2CCCN(Cc3ccc(F)cc3Cl)CC2)n1` displayed an RP-LC retention time of 754 s.
`O=C(Nc1cccc(F)c1)C1CCN(S(=O)(=O)c2ccc3[nH]c(=O)ccc3c2)CC1`: the RP-LC retention time turned out to be 736 s.
The compound `COc1cc([C@@H]2c3cc4c(cc3[C@H](O)[C@@H](CO)[C@@H]2C(=O)N2CCCC2)OCO4)cc(OC)c1OC` displayed an RP-LC retention time of 641 s.
`COC(=O)c1c(C)[nH]c(C(=O)N2CCCC(C(=O)N3CCCCCC3)C2)c1C` (centres undefined) returned an RP-LC retention time of 723 s.
With `CC1(C(=O)NCc2ccccc2)Cc2ccccc2C(=O)N1C1CC1` (centres undefined), the RP-LC retention time is 751 s.
For the compound `CCS(=O)(=O)Nc1ccc(-c2noc(C(C)NS(=O)(=O)c3ccc(C)cc3)n2)cc1` (centres undefined), the RP-LC retention time was determined as 836 s.
Consider `COCCCNC(=O)C1CCCN(c2cc(=O)n(C)c(=O)n2C)C1` (centres undefined), for which the RP-LC retention time was determined as 585 s.
The figure for `Cn1c(=O)c2c(nc3n(-c4ccc(F)cc4)c(-c4ccc(Cl)cc4)cn23)n(C)c1=O` is 1010 s.
The figure for `CN(C)c1nccnc1OC1CCN(C(=O)c2ccncc2)C1` (centres undefined) is 553 s.
On to `Cc1cc2c(c(=O)n(-c3ccc(F)cc3)c(=O)n2CC(=O)Nc2ccc(F)cc2)n1C`, for which the RP-LC retention time is 825 s.
`Cc1c(Cl)cccc1NC(=O)C(=O)NCC1(c2ccc(F)cc2)CC1` showed an RP-LC retention time of 1110 s.
`O=C(NCCN1CCCC1)C1CCCN(c2ncnc3c2nc2n3CCCCC2)C1` (centres undefined) yielded an RP-LC retention time of 591 s.
